Measurements taken from US8835644B2, “Broad spectrum benzothiophene-nitrothiazolide and other antimicrobials” (University of Virginia Patent Foundation, priority 2009, dated 2014).
Values after ≈ are worked out from the molar mass of the structure shown. Like-named read-outs stand apart in the source and are kept apart here.

How the values were obtained:
[1] = tested on: E. coli; assay: MIC testing by broth dilution, E. coli plank; format: cell-based, Escherichia coli
Protocol: (§1) A standard broth dilution protocol was used in 96 well microplates containing a standard dilution of the microorganism to be tested in 100 microliters of the appropriate medium. Appropriate medium: E. coli, LB medium; Staphylococcus strains, Trypticase Soy; and for H. pylori and C. jejuni, Brain Heart Infusion. The compounds to be tested were set at 32 μg/ml in 200 microliters in well one and then serially diluted to provide a range from 32 to 0.06. The wells were scored visually at 24 h. The well where there was no growth was recorded as the MIC. Clostridium difficile was tested by agar diffusion and disk diffusion (Kirby Bower) methods under anaerobic conditions on Wilkins Chalgrin agar. In these assays, zone of inhibited growth was measured and compared by relative ratio to the zone recorded for NTZ.
(§2) Representative compounds of the invention were tested in a series of assays against a series of organisms as described above. […] The organisms tested include, C. difficile, H. pylori, C. jejuni, MRSA, S. epidermidis, and E. coli. S. epidermidis and E. coli were tested in the plank and biofilm assay. A disk diffusion assay was also used for C. difficile. Direct PFOR enzyme assays were also performed. All analogues and derivatives were not tested on every organism in every type of assay (the “-” in each table means that it was not tested).

[2] = tested on: MRSA; assay: MIC testing by broth dilution, MRSA; format: cell-based, Staphylococcus aureus
Protocol: as §1, §2

[3] = tested on: C. jejuni; assay: MIC testing by broth dilution, C. jejuni; format: cell-based, Campylobacter jejuni
Protocol: as §1, §2

[4] = tested on: S. epidermidis; assay: MIC testing by broth dilution, S. epidermidis plank; format: cell-based, Staphylococcus epidermidis
Protocol: as §1, §2

[5] = tested on: H. pylori; assay: MIC testing by broth dilution, H. pylori; format: cell-based, Helicobacter pylori
Protocol: as §1, §2

[6] = broth dilution, LB medium, 24 h, read-out: MIC (μM) E. coli Plank
[7] = broth dilution, Trypticase Soy, 24 h, read-out: MIC (μM) MRSA
[8] = broth dilution, Brain Heart Infusion, 24 h, read-out: MIC (μM) C. jejuni
[9] = broth dilution, Trypticase Soy, 24 h, read-out: MIC (μM) S. epidermidis Plank
[10] = broth dilution, Brain Heart Infusion, 24 h, read-out: MIC (μM) H. pylori
[11] = planktonic, Furan analogues table, read-out: MIC E. coli Plank
[12] = Furan analogues table, read-out: MIC MRSA
[13] = Furan analogues table, read-out: MIC C. jejuni
[14] = planktonic, Furan analogues table, read-out: MIC S. epidermidis Plank
[15] = Furan analogues table, read-out: MIC H. pylori

| MIC [1, 11] [µM] | MIC [2, 12] [µM] | MIC [3, 13] [µM] | MIC [4, 14] [µM] | MIC [5, 15] [µM] | Compound | MIC [1, 6] [µM] | MIC [2, 7] [µM] | MIC [3, 8] [µM] | MIC [4, 9] [µM] | MIC [5, 10] [µM] | further results |
| --- | --- | --- | --- | --- | --- | --- | --- | --- | --- | --- | --- |
| 97.2 (≈ 32 µg/mL) | 12.1 (≈ 3.98 µg/mL) | 24.3 (≈ 8 µg/mL) | 12.1 (≈ 3.98 µg/mL) | 3.8 (≈ 1.25 µg/mL) | Cc1ccccc1-c1ccc(C(=O)Nc2ncc([N+](=O)[O-])s2)o1 [VPC16a1103] |  |  |  |  |  |  |
| 96.0 (≈ 32 µg/mL) | 24.0 (≈ 8 µg/mL) | 24.0 (≈ 8 µg/mL) | 12.0 (≈ 4 µg/mL) | 1.5 (≈ 0.5 µg/mL) | O=C(Nc1ncc([N+](=O)[O-])s1)c1ccc(-c2cccc(F)c2)o1 [VPC16b1115] |  |  |  |  |  |  |
| 91.5 (≈ 32 µg/mL) | 11.4 (≈ 3.99 µg/mL) | 11.4 (≈ 3.99 µg/mL) | 5.7 (≈ 1.99 µg/mL) | 1.4 (≈ 0.49 µg/mL) | O=C(Nc1ncc([N+](=O)[O-])s1)c1ccc(-c2ccccc2Cl)o1 [VPC16b1118] |  |  |  |  |  |  |
| 91.5 (≈ 32 µg/mL) | 91.5 (≈ 32 µg/mL) | 22.9 (≈ 8.01 µg/mL) | 91.5 (≈ 32 µg/mL) | 1.1 (≈ 0.385 µg/mL) | O=C(Nc1ncc([N+](=O)[O-])s1)c1ccc(-c2cccc(Cl)c2)o1 [VPC16b1119] |  |  |  |  |  |  |

Second part, the compound before the results:

| Compound | MIC [1, 11] [µM] | MIC [2, 12] [µM] | MIC [3, 13] [µM] | MIC [4, 14] [µM] | MIC [5, 15] [µM] | MIC [1, 6] [µM] | MIC [2, 7] [µM] | MIC [3, 8] [µM] | MIC [4, 9] [µM] | MIC [5, 10] [µM] | further results |
| --- | --- | --- | --- | --- | --- | --- | --- | --- | --- | --- | --- |
| O=C(Nc1ncc([N+](=O)[O-])s1)c1sccc1Cl [VPC16a1009] |  |  |  |  |  |  |  |  |  |  | MIC ([1]; planktonic, Thiophene analogues table, read-out: MIC E. coli Plank): 110.5 µM (≈ 32 µg/mL); MIC ([2]; Thiophene analogues table, read-out: MIC MRSA): 20.7 µM (≈ 6 µg/mL); MIC ([3]; Thiophene analogues table, read-out: MIC C. jejuni): 20.7 µM (≈ 6 µg/mL); MIC ([4]; planktonic, Thiophene analogues table, read-out: MIC S. epidermidis Plank): 55.2 µM (≈ 16 µg/mL); MIC ([5]; Thiophene analogues table, read-out: MIC H. pylori): 5.2 µM (≈ 1.51 µg/mL) |
| O=C(Cc1ccccc1)Nc1ncc([N+](=O)[O-])s1 [VPC16a1013] |  |  |  |  |  | 121.5 (≈ 32 µg/mL) | 121.5 (≈ 32 µg/mL) | 1.8 (≈ 0.474 µg/mL) | 22.8 (≈ 6 µg/mL) | 21.6 (≈ 5.69 µg/mL) |  |
| Cn1cc(C(=O)Nc2ncc([N+](=O)[O-])s2)c2ccccc21 [VPC16a1014] |  |  |  |  |  | 105.9 (≈ 32 µg/mL) | 105.9 (≈ 32 µg/mL) | 19.9 (≈ 6.02 µg/mL) | 5.0 (≈ 1.51 µg/mL) | 1.2 (≈ 0.363 µg/mL) |  |
| O=C(Nc1ncc([N+](=O)[O-])s1)c1ccncc1F [VPC16a1053] |  |  |  |  |  | 119.3 (≈ 32 µg/mL) | 119.3 (≈ 32 µg/mL) | 14.9 (≈ 4 µg/mL) | 119.3 (≈ 32 µg/mL) | 3.7 (≈ 0.992 µg/mL) |  |
| O=C(Nc1ncc([N+](=O)[O-])s1)c1ccc(F)cc1F [VPC16b1009] |  |  |  |  |  | 112.2 (≈ 32 µg/mL) | 28.0 (≈ 7.99 µg/mL) | 7.0 (≈ 2 µg/mL) | 42.1 (≈ 12 µg/mL) | 0.4 (≈ 0.114 µg/mL) |  |
| O=C(Nc1ncc([N+](=O)[O-])s1)c1c(F)cccc1F [VPC16b1010] |  |  |  |  |  | 112.2 (≈ 32 µg/mL) | 28.0 (≈ 7.99 µg/mL) | 14.0 (≈ 3.99 µg/mL) | 28.0 (≈ 7.99 µg/mL) | 0.7 (≈ 0.2 µg/mL) |  |
| O=C(Nc1ncc([N+](=O)[O-])s1)c1cc(F)c(F)cc1F [VPC16b1012] |  |  |  |  |  | 105.5 (≈ 32 µg/mL) | 33.0 (≈ 10 µg/mL) | 9.9 (≈ 3 µg/mL) | 33.0 (≈ 10 µg/mL) | 0.8 (≈ 0.243 µg/mL) |  |
| O=C(Nc1ncc([N+](=O)[O-])s1)c1cc(F)c(F)c(F)c1 [VPC16b1014] |  |  |  |  |  | 105.5 (≈ 32 µg/mL) | 29.7 (≈ 9.01 µg/mL) | 4.9 (≈ 1.49 µg/mL) | 66.0 (≈ 20 µg/mL) | 1.2 (≈ 0.364 µg/mL) |  |
| O=C(Nc1ncc([N+](=O)[O-])s1)c1ccc(F)c(F)c1 [VPC16b1019] |  |  |  |  |  | 84.1 (≈ 24 µg/mL) | 10.5 (≈ 2.99 µg/mL) | 5.3 (≈ 1.51 µg/mL) | 28.0 (≈ 7.99 µg/mL) | 1.8 (≈ 0.513 µg/mL) |  |
| Cn1c(C(=O)Nc2ncc([N+](=O)[O-])s2)cc2ccccc21 [VPC16b1028] |  |  |  |  |  | 105.9 (≈ 32 µg/mL) | 105.9 (≈ 32 µg/mL) | 39.7 (≈ 12 µg/mL) | 105.9 (≈ 32 µg/mL) | 1.2 (≈ 0.363 µg/mL) |  |
| O=C(Nc1ncc([N+](=O)[O-])s1)C1CC1c1ccccc1 (centres unmarked) [VPC16b1032] |  |  |  |  |  | 110.6 (≈ 32 µg/mL) | 13.8 (≈ 3.99 µg/mL) | 26.6 (≈ 7.7 µg/mL) | 13.8 (≈ 3.99 µg/mL) | 1.7 (≈ 0.492 µg/mL) |  |
| O=C(Nc1ncc([N+](=O)[O-])s1)c1ccc(-c2ccc3c(c2)OCO3)o1 [VPC16b1132] | 89.1 (≈ 32 µg/mL) | 89.1 (≈ 32 µg/mL) | 89.1 (≈ 32 µg/mL) | 89.1 (≈ 32 µg/mL) | 1.4 (≈ 0.503 µg/mL) |  |  |  |  |  |  |
